Assay results from article PMC6792352, “Limited Chemical Structural Diversity Found to Modulate Thyroid Hormone Receptor in the Tox21 Chemical Library” (Environmental Health Perspectives, 2019).
Like-named read-outs stand apart in the source and are kept apart here.

What was measured:
[1] = tested on: thyroid hormone receptor (endogenous TRα and TRβ); assay: GH3-TRE-Ag primary qHTS, luciferase reporter, agonist mode (TOX21_TR_LUC_GH3_Agonist, aeid 803); assay type: cell-based, rat; settings: for GH3-TRE-Ag AC50 hitc: hit call from tcpl
[2] = biological target: T1, TRα ligand-binding domain (Homo sapiens, UniProt P10827); assay: TRa-coa LanthaScreen TR-FRET coactivator (SRC-2 peptide) recruitment, agonist (TOX21_TRA_COA_Agonist_Followup_ratio, aeid 2230); assay type: biochemical; settings: for TRa-coa hitc: hit call from tcpl; for Emax: read-out: EMax (% of Control) tra-coa-agonist-followup-1
T1 construct: the receptor LBDs expressed as glutathione S-transferase (GST) fusion proteins; purchased

in vitro = settings: rat, gh3-tre-luc cells, AC50 (uM) modified / 1000
[3] = tested on: thyroid hormone receptor (endogenous TRα and TRβ); assay: GH3-TRE-Ag-Followup confirmation (TOX21_TR_LUC_GH3_Agonist_Followup, aeid 2226); assay type: cell-based, rat; settings: for GH3-TRE-Ag-Followup hitc: hit call from tcpl; for AC50: read-out: GH3-TRE-Ag-Followup AC50
human RXRα = biological target: T2, human RXRα (Homo sapiens, UniProt P19793); assay: RXRa-bla-Ag mammalian one-hybrid beta-lactamase assay (TOX21_TR_RXR_BLA_Agonist_Followup_ratio, aeid 2253); assay type: cell-based; settings: for tr-followup-rxr-bla-agonist-1 hitc: hit call from tcpl; for Emax: read-out: EMax (% of Control) tr-followup-rxr-bla-agonist-1
T2 construct: host or cells: GeneBLAzer UAS-bla HEK 293T
T2 sequence (P19793 227-458 limits assumed): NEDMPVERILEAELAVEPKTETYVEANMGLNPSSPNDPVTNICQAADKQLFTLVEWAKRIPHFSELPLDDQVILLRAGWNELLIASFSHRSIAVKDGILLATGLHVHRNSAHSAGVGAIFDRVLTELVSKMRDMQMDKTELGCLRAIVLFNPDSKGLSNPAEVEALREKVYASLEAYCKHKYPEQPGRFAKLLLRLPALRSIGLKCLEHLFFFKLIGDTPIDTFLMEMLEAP

[4] = tested on: Tox21 cell viability assays (different cell types); assay: Global cytotoxicity: eighteen Tox21 cell viability assays; assay type: cell-based
[5] = biological target: T3, human TRβ ligand-binding domain (Homo sapiens, UniProt P10828); assay: TRb-coa LanthaScreen TR-FRET coactivator (SRC-2 peptide) recruitment, agonist (TOX21_TRB_COA_Agonist_Followup_ratio, aeid 2244); assay type: biochemical; parameters: host or cells: GeneBLAzer UAS-bla HEK 293T; settings: for AC50 / TRb-coa hitc: agonist; for AC50: read-out: TRb-coa AC50; for TRb-coa hitc: hit call from tcpl; for Emax: read-out: EMax (% of Control) trb-coa-agonist-followup-1
T3 sequence (P10828 217-461 limits assumed): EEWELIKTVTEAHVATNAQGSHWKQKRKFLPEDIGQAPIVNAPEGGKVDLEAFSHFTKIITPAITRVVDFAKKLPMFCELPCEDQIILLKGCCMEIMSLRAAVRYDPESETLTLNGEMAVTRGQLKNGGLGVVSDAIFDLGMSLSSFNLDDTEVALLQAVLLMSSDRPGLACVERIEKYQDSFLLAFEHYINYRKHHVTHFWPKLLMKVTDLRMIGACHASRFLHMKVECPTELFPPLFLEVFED

GH3-TRE-Luc cell line [6] = assay: GH3-TRE-Via cell viability, CellTiter-Fluor (TOX21_TR_LUC_GH3_Antagonist_viability, aeid 805); settings: for AC50: Rattus norvegicus, read-out: TR_LUC_GH3_Antagonist_viability AC50 (uM)
[7] = biological target: T3, human TRβ ligand-binding domain; assay: TRb-bla agonist mammalian one-hybrid beta-lactamase assay (TOX21_TRB_BLA_Agonist_Followup_ratio, aeid 2236); assay type: cell-based; parameters: host or cells: GeneBLAzer UAS-bla HEK 293T; settings: for AC50 / TRb-bla hitc: agonist; for AC50: read-out: TRb-bla AC50; for TRb-bla hitc: hit call from tcpl; for Emax: read-out: EMax (% of Control) trb-bla-agonist-followup-1
[8] = tested on: thyroid hormone receptor (TR); assay: Classification of TR actives across characterization assays (TR-Ag / RXR-Ag; TR model binary); settings: for Categorization Code: TR agonist characterization
From the text: Active rate comparison between receptors. […]; [Kleinstreuer et al. 2017]). We first removed chemicals classified as pharmaceuticals because these sets of chemicals are biased toward drugs targeting estrogen receptors and androgen receptors. […]. For TR, we cross-referenced these same chemicals for testing against TR and used candidate chemicals in Tables 2 and 3 to define active rates.
Complete results from both GH3-TRE qHTS agonist, antagonist, and viability mode for the 8,305 compounds are provided in Excel Table S2. […]. […]. Together with some potential false negatives, these chemicals, totaling 84 in all, were screened for activity in a series of assays for confirmation in the GH3-TRE-Ag assay; specificity screening in the TRβ-UAS-bla HEK 293T and RXRα-UAS-bla HEK 293T mammalian one-hybrid assays; viability assays for the HEK293T parental cell line; and orthogonal screening in two TR:coactivator recruitment assays, TRa-coa and TRb-coa. […].

GH3-TRE-Luc cell line [9] = tested on: GH3-TRE-Luc cell line
[10] = agonist, read-out: TRa-coa AC50
[11] = read-out: tr-followup-rxr-bla-agonist-1 AC50

T1 sequence (P10827 163-410 isoform P10827-2 limits assumed, other chains not shown): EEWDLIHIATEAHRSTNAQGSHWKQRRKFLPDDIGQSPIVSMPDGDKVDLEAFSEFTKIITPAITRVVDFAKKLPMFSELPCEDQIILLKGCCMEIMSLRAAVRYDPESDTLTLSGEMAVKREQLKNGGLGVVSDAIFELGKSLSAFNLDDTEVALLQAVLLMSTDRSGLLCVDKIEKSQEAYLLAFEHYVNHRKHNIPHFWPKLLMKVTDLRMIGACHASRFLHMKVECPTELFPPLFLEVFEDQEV

C=C(NC(=O)C(=C)NC(=O)c1csc(C2=N[C@@H]3c4csc(n4)[C@H]4NC(=O)c5csc(n5)[C@H]([C@](C)(O)[C@@H](C)O)NC(=O)[C@H]5CSC(=N5)/C(=C/C)NC(=O)[C@H]([C@@H](C)O)NC(=O)c5csc(n5)[C@]3(CC2)NC(=O)[C@H](C)NC(=O)C(=C)NC(=O)[C@H](C)NC(=O)[C@H]([C@@H](C)CC)N[C@@H]2C=Cc3c([C@H](C)O)cc(nc3[C@H]2O)C(=O)O[C@@H]4C)n1)C(N)=O [Thiostrepton]
EMax (% of Control) gh3-tre-agonist [1]: 15.2 % of Control
GH3-TRE-Ag AC50 hitc [1]: 0
AC50 [2, 10]: > 92 µM
TRa-coa hitc ([2]; agonist): 0
Emax [2]: -0.6%
CC50 at 24 h (in vitro): 6.56 µM
EMax (% of Control) gh3-tre-agonist-followup-1_agonist [3]: 28.2 % of Control
GH3-TRE-Ag-Followup hitc [3]: 1
AC50 [3]: 5470 nM
tr-followup-rxr-bla-agonist-1 hitc (human RXRα): 0
Emax (human RXRα): 17.2%
AC50 (human RXRα; [11]): > 92 µM
GLOBAL CYTOTOXICITY cytotox.median [4]: >92
GLOBAL CYTOTOXICITY cytotox.number_Active ([4]; # active of 18 total Tox21 viability assays): 0
AC50 [5]: > 92 µM
TRb-coa hitc [5]: 0
Emax [5]: -0.224%
AC50 (GH3-TRE-Luc cell line [6]): > 92 µM
TR_LUC_GH3_Antagonist_viability hitc (GH3-TRE-Luc cell line [6]; hit call from tcpl): 0
AC50 [7]: > 92 µM
TRb-bla hitc [7]: 0
Emax [7]: 4.1%
Categorization Code [8]: About 20% efficacy in RXR and TR; hitc is inconsistent; promiscious NR activity

Cc1cc(NC(=O)C(=O)O)cc(C)c1Oc1ccc(O)c2c1CCC2 [CP-634384, reference compound]
EMax (% of Control) gh3-tre-agonist [1]: 129.5 % of Control
GH3-TRE-Ag AC50 hitc [1]: 1
EMax (% of Control) tra-coa-agonist-followup-1 [2]: 158.4 % of Control
AC50 ([2]; cell-free coactivator recruitment, read-out: TRa-coa-Ag AC50): 0.0029 µM
TRa-coa hitc ([2]; agonist): 1
EMax (% of Control) gh3-tre-agonist-followup-1_agonist [3]: 103.7 % of Control
AC50 ([3]; confirmation, agonist mode): 18 nM
GH3-TRE-Ag-Followup hitc [3]: 1
AC50 (GH3-TRE-Luc cell line [9]): > 92 µM
TR_LUC_GH3_Antagonist_viability hitc (GH3-TRE-Luc cell line [9]): 0
EMax (% of Control) tr-followup-rxr-bla-agonist-1 (human RXRα): 54.9 % of Control
AC50 (human RXRα; HEK 293T one-hybrid, agonist mode, inactive set to 1,000, read-out: RXRa-bla-Ag AC50): 44.3 µM
tr-followup-rxr-bla-agonist-1 hitc (human RXRα): 1
AC50 [4]: > 92 µM
GLOBAL CYTOTOXICITY cytotox.median [4]: >92
GLOBAL CYTOTOXICITY cytotox.number_Active [4]: 0
Categorization Code [8]: TR-Ag
Classification ([8]; TR-Ag = TR agonist, RXR-Ag = RXR agonist): TR-Ag

CCCCc1oc2ccccc2c1C(=O)c1cc(I)c(OCCN(CC)CC)c(I)c1 [amiodarone]
cytotoxicity in GH3 viability assay (GH3-TRE-Luc cell line [9]): cytotoxic at the concentrations at which it inhibits TR

C[C@H](CCC(=O)NCC(=O)O)[C@H]1CC[C@H]2[C@@H]3[C@H](O)C[C@@H]4C[C@H](O)CC[C@]4(C)[C@H]3C[C@H](O)[C@]12C [glycocholic acid]
EMax (% of Control) gh3-tre-agonist [1]: 27.2 % of Control
activity in GH3-TRE agonist assay [1]: active
GH3-TRE-Ag AC50 hitc [1]: 1
AC50 [2, 10]: > 92 µM
TRa-coa hitc ([2]; agonist): 0
Emax [2]: -0.137%
EMax (% of Control) gh3-tre-agonist-followup-1_agonist [3]: 34.6 % of Control
GH3-TRE-Ag-Followup hitc [3]: 0
TR_LUC_GH3_Antagonist_viability hitc (GH3-TRE-Luc cell line [9]; rat, 24 h): 0
tr-followup-rxr-bla-agonist-1 hitc (human RXRα): 0
Emax (human RXRα): -1.3%
AC50 (human RXRα; [11]): > 92 µM
GLOBAL CYTOTOXICITY cytotox.number_Active [4]: 0
GLOBAL CYTOTOXICITY cytotox.median ([4]; median over Tox21 viability assays): >92
AC50 [5]: > 92 µM
TRb-coa hitc [5]: 0
Emax [5]: -0.225%
AC50 (GH3-TRE-Luc cell line [6]): > 92 µM
AC50 [7]: > 92 µM
TRb-bla hitc [7]: 0
Emax [7]: 14.8%
Categorization Code [8]: Equivocal RXR-Ag
